Tested on: plaque biofilm grown from fresh pooled human saliva
Experiment: in vitro plaque glycolysis model (iPGRM): acid production and acid inhibition
Assay type: cell-based, plaque microorganisms from human saliva
Details: TABLE 2, 3-day biofilm
Method: Acid production and acid inhibition were determined with the in vitro plaque glycolysis model (iPGRM). The purpose of this technique is to provide a simple and quick method for determining if compounds have an influence on the metabolic pathways that plaque microorganisms utilize to produce toxins that adversely affect gingival health. It is also useful to determine if compounds have an influence on the metabolic pathways that plaque microorganisms utilize to produce plaque acids that adversely affect teeth.
The in vitro plaque glycolysis model (iPGRM) is a technique in which plaque is grown from human saliva and treated with various agents to determine anti-glycolytic activity of treatments. When bacteria convert sugar into energy with the help of enzymes, acids are formed. These acids demineralize and damage the dental enamel. […]
[…] The pH of the media solutions was then measured to determine the amount of glycolysis inhibition relative to a negative control.
On Day 1, new glass rods (5 mm×90 mm) were polished approximately 25 mm from the un-tapered end on a lathe with silicon carbide paper of 240, 320, 400, and 600 grit used sequentially. […] After polishing, rods were stored until ready to run test. […]

SMILES: [H]/N=C(\N/C(=N/[H])NCCCCCCNC(=N)NC(=N)Nc1ccc(Cl)cc1)Nc1ccc(Cl)cc1 [1% Chlorhexidine, Chlorhexidine]
- Acid Production (ΔpH) Mean (2 min treatment with dentifrice slurry or diluted treatment in water (1:5), ΔpH vs blank vials): 0.30 ΔpH
- Mean Acid Inhibition (%) Mean (relative to negative control Crest Cavity Protection): 80.77%
